Results reported in BindingDB's records for doi:10.7270/Q2TX3CTT (Broad Institute, 2010).

The molecules below were run against Glycogen synthase kinase-3 beta (Homo sapiens, UniProt P49841) (assay: concentration-response blocking of human GSK3B – biochemical, luminescence, cell-free homogeneous, retest, dose response (AID 434954)).
Glycogen synthase kinase-3 beta, sequence (P49841 whole entry): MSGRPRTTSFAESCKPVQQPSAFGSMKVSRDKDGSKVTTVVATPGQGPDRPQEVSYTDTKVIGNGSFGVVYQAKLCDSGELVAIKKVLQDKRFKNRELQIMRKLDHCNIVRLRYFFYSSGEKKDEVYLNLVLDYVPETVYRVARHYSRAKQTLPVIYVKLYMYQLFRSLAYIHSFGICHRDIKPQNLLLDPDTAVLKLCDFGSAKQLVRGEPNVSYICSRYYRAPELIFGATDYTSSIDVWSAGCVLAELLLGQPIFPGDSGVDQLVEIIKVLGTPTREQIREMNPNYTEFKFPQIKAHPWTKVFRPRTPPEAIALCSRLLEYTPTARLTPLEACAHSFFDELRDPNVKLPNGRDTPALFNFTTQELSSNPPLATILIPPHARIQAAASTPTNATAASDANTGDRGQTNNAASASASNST

EC50, > 300 µM:
CCOC(=O)c1ccc(NC(=O)CSc2nnc(C3CC3)n2CC)cc1 [MLS000121467], O=c1oc(-c2cccs2)nc2sc3c(c12)CCCCC3, O=c1oc2cc(O)ccc2cc1-c1ccccc1 [7-Hydroxy-3-phenyl-chromen-2-one], Cc1ccc(C)c(S(=O)(=O)NCc2ccc(C(=O)N3CC(C)OC(C)C3)cc2)c1 (centres undefined) [N-[[4-(2,6-dimethylmorpholin-4-yl)carbonylphenyl]methyl]-2,5-dimethyl-benzenesulfonamide]
